Laboratory results: ChEMBL document CHEMBL5608163, “Structure modification of anoplin for fighting resistant bacteria” (Eur J Med Chem, 2024)
Values after ≈ are worked out from the molar mass of the structure shown. Square brackets hold non-standard residues; d marks the D form. Peptide text beside a SMILES is read from it. * marks the point of attachment. Heptadecanoyl = CCCCCCCCCCCCCCCCC(=O)*; Cha = N[C@@H](CC1CCCCC1)C(=O)O

Experiments:
Erythrocyte = test: Hemolytic activity in erythrocytes (unknown origin); assay type: toxicity, cell-based
Staphylococcus aureus [1] = test: Antibacterial activity against methicillin resistant Staphylococcus aureus ATCC 33591 assessed as inhibition of bacterial growth incubated for 16 to 20 hrs by broth micro-dilution method; assay type: functional; details: time 16-20 hrs
Enterococcus faecium [2] = test: Antibacterial activity against Vancomycin resistant Enterococcus faecium ATCC 700221 assessed as inhibition of bacterial growth incubated for 16 to 20 hrs by broth micro-dilution method; assay type: functional; details: time 16-20 hrs
Escherichia coli [3] = test: Antibacterial activity against Escherichia coli ATCC 25922 assessed as reduction in bacterial growth incubated for 48 hrs by Mueller-Hinton broth based microdilution method; assay type: functional
Staphylococcus aureus [4] = test: Antibacterial activity against Staphylococcus aureus ATCC 25923 assessed as reduction in bacterial growth incubated for 48 hrs by Mueller-Hinton broth based microdilution method; assay type: functional
[5] = Hemolytic activity in human erythrocyte incubated for 1 hr; assay type: toxicity, cell-based; details: erythrocytes
[6] = test system: Mycolicibacterium smegmatis; test: Antimycobacterial activity against Mycobacterium smegmatis mc2 155 assessed as reduction in bacterial cell growth incubated for 24 hrs by resazurin dye based broth microdilution method; assay type: functional
Bacillus subtilis = test: Antimicrobial activity against Bacillus subtilis assessed as microbial growth inhibition incubated for 24 hrs by broth micro-dilution method; assay type: functional
Escherichia coli [7] = test: Antibacterial acitivity against Escherichia coli DH5a assessed as bacterial growth inhibition incubated for 24 hrs by broth micro-dilution method; assay type: functional
Pseudomonas aeruginosa [8] = test: Antimicrobial activity against Pseudomonas aeruginosa assessed as inhibition of microbial growth incubated for 24 hrs by microdilution method; assay type: functional
[9] = Hemolytic activity against human Red blood cells assessed as cell lysis; assay type: toxicity, cell-based, Erythrocyte
Zymomonas mobilis = test: Antibacterial activity against Zymomonas mobilis ATCC 10988 assessed as reduction in bacterial growth incubated for 24 hrs by broth micro-dilution method; assay type: functional
Escherichia coli [10] = test: Antibacterial activity against Escherichia coli ATCC 25922 assessed as reduction in bacterial growth incubated for 18 to 24 hrs by broth microdilution method; assay type: functional; details: time 18-24 hrs
Pseudomonas aeruginosa [11] = test: Antibacterial activity against Pseudomonas aeruginosa ATCC 15442 assessed as reduction in bacterial cell growth incubated for 18 to 24 hrs by two fold serial microdilution method; assay type: functional; details: time 18-24 hrs
[12] = Hemolytic activity in human RBC; assay type: toxicity, cell-based, Erythrocyte; details: red blood cells
Enterococcus faecium [13] = test: Antibacterial activity against vancomycin resistant Enterococcus faecium NCTC 12204 assessed as reduction in bacterial growth by microdilution broth method; assay type: functional
Staphylococcus aureus [14] = test: Antibacterial activity against methicillin-resistant Staphylococcus aureus ATCC 33591 assessed as reduction in bacterial growth incubated for 16 to 24 hrs by agar dilution method; assay type: functional; details: time 16-24 hrs
[15] = Hemolytic activity against Red blood cells (unknown origin) incubated for 1 hr by spectrophotometric analysis; assay type: toxicity, cell-based, Erythrocyte

Compound | HC10 (Erythrocyte) | MIC (Staphylococcus aureus [1]) | MIC (Enterococcus faecium [2]) | MIC (Escherichia coli [3]) | MIC (Staphylococcus aureus [4]) | HC50 at 1 h [5] | MIC [6] | MIC (Bacillus subtilis) | MIC (Escherichia coli [7]) | MIC (Pseudomonas aeruginosa [8]) | HC50 [9] | MIC (Zymomonas mobilis) | further results
CC[C@@H](C)[C@@H](NC(=O)[C@H](CCCCN)NC(=O)[C@H](CCCCN)NC(=O)[C@H](CC(C)C)NC(=O)[C@H](CC(C)C)NC(=O)CN)C(=O)N[C@@H](CCCCN)C(=O)N[C@@H](CCCCN)C(=O)N[C@@H](CC(C)C)C(=O)N[C@@H](CC(C)C)C(N)=O | 1962.4 µM | 1020 µM (≈ 1180 µg/mL) | 341 µM (≈ 393 µg/mL) |  |  |  |  |  |  |  |  |  | 
CCCCCCCCCCCCCCCCC(=O)NCC(=O)N[C@@H](CC(C)C)C(=O)N[C@@H](CC(C)C)C(=O)N[C@@H](CCCCN)C(=O)N[C@@H](CCCNC(=N)N)C(N)=O (Heptadecanoyl-GLLKR-NH2) |  |  |  | 7.88 µM (≈ 6.6 µg/mL) | 3.94 µM (≈ 3.3 µg/mL) | 80.2 µM |  |  |  |  |  |  | 
CCCCCCCCCCCCCCCCC(=O)NCC(=O)N[C@@H](CC(C)C)C(=O)N[C@@H](CC(C)C)C(=O)N[C@@H](CCCCN)C(=O)N[C@@H](CCCNC(=N)N)C(=O)N[C@H](C(N)=O)[C@@H](C)CC (Heptadecanoyl-GLLKRI-NH2) |  |  |  | 3.47 µM (≈ 3.3 µg/mL) | 0.66 µM (≈ 0.627 µg/mL) | 8.01 µM |  |  |  |  |  |  | 
CC(C)C[C@H](NC(=O)[C@H](CC(C)C)NC(=O)[C@H](CCCCN)NC(=O)[C@H](CCCCN)NC(=O)[C@@H](Cc1ccc2ccccc2c1)NC(=O)[C@H](CCCNC(=N)N)NC(=O)[C@H](CCCCN)NC(=O)[C@H](CC(C)C)NC(=O)[C@H](CC1CCCCC1)NC(=O)CN)C(=O)O | 27 µM | 9.5 µM (≈ 12.4 µg/mL) | 3.2 µM (≈ 4.18 µg/mL) |  |  |  |  |  |  |  |  |  | 
CCCCCCCCCCCCCCCCC(=O)NCC(=O)N[C@@H](CC(C)C)C(=O)N[C@@H](CC(C)C)C(=O)N[C@@H](CCCCN)C(=O)N[C@@H](CCCNC(=N)N)C(=O)N[C@H](C(=O)N[C@@H](CCCCN)C(=O)N[C@H](C(N)=O)[C@@H](C)O)[C@@H](C)CC (Heptadecanoyl-GLLKRIKT-NH2) |  |  |  | 2.8 µM (≈ 3.3 µg/mL) | 1.4 µM (≈ 1.65 µg/mL) | 29 µM |  |  |  |  |  |  | 
CC(C)C[C@H](NC(=O)CN)C(=O)N[C@@H](CC(C)C)C(=O)N[C@@H](CCCCN)C(=O)N[C@@H](CCCNC(=N)N)C(=O)N[C@H](Cc1ccc2ccccc2c1)C(=O)N[C@@H](CCCCN)C(=O)N[C@H](C(=O)N[C@@H](CC(C)C)C(=O)N[C@@H](CC1CCCCC1)C(N)=O)[C@@H](C)O | 74.3 µM | 28.4 µM (≈ 36.3 µg/mL) | 3.2 µM (≈ 4.09 µg/mL) |  |  |  |  |  |  |  |  |  | 
CC[C@H](C)[C@H](NC(=O)[C@H](CCCNC(=N)N)NC(=O)[C@H](CCCCN)NC(=O)[C@H](CCCCN)NC(=O)[C@H](CC(C)C)NC(=O)CN)C(=O)N[C@@H](CCCCN)C(=O)N[C@@H](CCCCN)C(=O)N[C@@H](CC(C)C)C(=O)N[C@@H](CC(C)C)C(N)=O (H-GLKKRIKKLL-NH2) |  |  |  |  |  |  | 13 µM (≈ 15.5 µg/mL) | 13 µM (≈ 15.5 µg/mL) | > 174 µM | 13 µM | > 174 µM | 12.6 µM (≈ 15.1 µg/mL) | 
CC[C@H](C)[C@H](NC(=O)[C@H](Cc1ccccc1)NC(=O)[C@H](CCCCN)NC(=O)[C@H](CC(C)C)NC(=O)[C@H](CC(C)C)NC(=O)CN)C(=O)N[C@@H](CCCCN)C(=O)N[C@@H](CCCNC(=N)N)C(=O)N[C@@H](CC(C)C)C(=O)N[C@@H](CC(C)C)C(N)=O (H-GLLKFIKRLL-NH2) |  |  |  |  |  |  | 4.2 µM (≈ 5.04 µg/mL) | 167 µM (≈ 200 µg/mL) | 167 µM (≈ 200 µg/mL) | 2.5 µM | > 167 µM | 17.4 µM (≈ 20.9 µg/mL) | 
CC[C@H](C)[C@H](NC(=O)[C@H](CCCCN)NC(=O)[C@H](CCCCN)NC(=O)[C@H](CC(C)C)NC(=O)[C@H](CC1CCCCC1)NC(=O)CN)C(=O)N[C@@H](CCCCN)C(=O)N[C@@H](CCCCN)C(=O)N[C@@H](CC(C)C)C(=O)N[C@@H](CC1CCCCC1)C(N)=O (H-G[Cha]LKKIKKL[Cha]-NH2) |  |  |  |  |  |  |  |  |  |  |  |  | MIC (Escherichia coli [10]): 4.6 µM (≈ 5.67 µg/mL); MIC (Pseudomonas aeruginosa [11]): 3.2 µM (≈ 3.94 µg/mL); HC50 [12]: 500 nM; MIC (Enterococcus faecium [13]): 3.2 µM (≈ 3.94 µg/mL); MIC (Staphylococcus aureus [14]): 3.2 µM (≈ 3.94 µg/mL); HC50 at 1 h [15]: 500 nM
CC[C@H](C)[C@H](NC(=O)[C@H](CCCCN)NC(=O)[C@H](CCCCN)NC(=O)[C@H](CC(C)C)NC(=O)[C@H](CC(C)C)NC(=O)CN)C(=O)N[C@@H](CCCCN)C(=O)N[C@@H](CCCNC(=N)N)C(=O)N[C@@H](CC(C)C)C(=O)N[C@@H](CC(C)C)C(N)=O (H-GLLKKIKRLL-NH2) |  |  |  |  |  |  | 0.9 µM (≈ 1.06 µg/mL) | 170 µM (≈ 200 µg/mL) | 170 µM (≈ 200 µg/mL) | 5.9 µM | > 170 µM | 4.2 µM (≈ 4.96 µg/mL) | 
